Measured values taken from US10208089B2, “Modulation of complement activity” (priority 2014, dated 2019).
pIC50: −log10 of the molar value. Starred links: 1 amine or outer side, 2 acyl side, 3 side chain; linkers in the order of their positions; H or OH if unused. Positions of bridges follow the written chain, without caps; N, C: chain ends. Non-standard residues stand in square brackets, D forms with d. Residues, ends and D or L forms follow the SMILES beside them. Trp(7-aza) = N[C@@H](Cc1c[nH]c2ncccc12)C(=O)O; mXylylene = c1cc(C[*:1])cc(C[*:2])c1; dPhg = N[C@@H](C(=O)O)c1ccccc1; Phg = N[C@H](C(=O)O)c1ccccc1; Tle = CC(C)(C)[C@H](N)C(=O)O; Pra = C#CC[C@H](N)C(=O)O; Nva = CCC[C@H](N)C(=O)O

What follows are compounds tested against C5 (Homo sapiens, UniProt P01031) (assay: Human hemolysis assay (RBC lysis assay using complete human sera)). Settings: inhibition of lysis of antibody-sensitized sheep erythrocytes, complete human sera.
Type: cell-based
Set-up: with complete human sera (Complement Technology, Tyler Tex.) and polypeptides; tissue Complement Technology, Tyler Tex; host or cells: complete human serum

C5, sequence (P01031 19-1676): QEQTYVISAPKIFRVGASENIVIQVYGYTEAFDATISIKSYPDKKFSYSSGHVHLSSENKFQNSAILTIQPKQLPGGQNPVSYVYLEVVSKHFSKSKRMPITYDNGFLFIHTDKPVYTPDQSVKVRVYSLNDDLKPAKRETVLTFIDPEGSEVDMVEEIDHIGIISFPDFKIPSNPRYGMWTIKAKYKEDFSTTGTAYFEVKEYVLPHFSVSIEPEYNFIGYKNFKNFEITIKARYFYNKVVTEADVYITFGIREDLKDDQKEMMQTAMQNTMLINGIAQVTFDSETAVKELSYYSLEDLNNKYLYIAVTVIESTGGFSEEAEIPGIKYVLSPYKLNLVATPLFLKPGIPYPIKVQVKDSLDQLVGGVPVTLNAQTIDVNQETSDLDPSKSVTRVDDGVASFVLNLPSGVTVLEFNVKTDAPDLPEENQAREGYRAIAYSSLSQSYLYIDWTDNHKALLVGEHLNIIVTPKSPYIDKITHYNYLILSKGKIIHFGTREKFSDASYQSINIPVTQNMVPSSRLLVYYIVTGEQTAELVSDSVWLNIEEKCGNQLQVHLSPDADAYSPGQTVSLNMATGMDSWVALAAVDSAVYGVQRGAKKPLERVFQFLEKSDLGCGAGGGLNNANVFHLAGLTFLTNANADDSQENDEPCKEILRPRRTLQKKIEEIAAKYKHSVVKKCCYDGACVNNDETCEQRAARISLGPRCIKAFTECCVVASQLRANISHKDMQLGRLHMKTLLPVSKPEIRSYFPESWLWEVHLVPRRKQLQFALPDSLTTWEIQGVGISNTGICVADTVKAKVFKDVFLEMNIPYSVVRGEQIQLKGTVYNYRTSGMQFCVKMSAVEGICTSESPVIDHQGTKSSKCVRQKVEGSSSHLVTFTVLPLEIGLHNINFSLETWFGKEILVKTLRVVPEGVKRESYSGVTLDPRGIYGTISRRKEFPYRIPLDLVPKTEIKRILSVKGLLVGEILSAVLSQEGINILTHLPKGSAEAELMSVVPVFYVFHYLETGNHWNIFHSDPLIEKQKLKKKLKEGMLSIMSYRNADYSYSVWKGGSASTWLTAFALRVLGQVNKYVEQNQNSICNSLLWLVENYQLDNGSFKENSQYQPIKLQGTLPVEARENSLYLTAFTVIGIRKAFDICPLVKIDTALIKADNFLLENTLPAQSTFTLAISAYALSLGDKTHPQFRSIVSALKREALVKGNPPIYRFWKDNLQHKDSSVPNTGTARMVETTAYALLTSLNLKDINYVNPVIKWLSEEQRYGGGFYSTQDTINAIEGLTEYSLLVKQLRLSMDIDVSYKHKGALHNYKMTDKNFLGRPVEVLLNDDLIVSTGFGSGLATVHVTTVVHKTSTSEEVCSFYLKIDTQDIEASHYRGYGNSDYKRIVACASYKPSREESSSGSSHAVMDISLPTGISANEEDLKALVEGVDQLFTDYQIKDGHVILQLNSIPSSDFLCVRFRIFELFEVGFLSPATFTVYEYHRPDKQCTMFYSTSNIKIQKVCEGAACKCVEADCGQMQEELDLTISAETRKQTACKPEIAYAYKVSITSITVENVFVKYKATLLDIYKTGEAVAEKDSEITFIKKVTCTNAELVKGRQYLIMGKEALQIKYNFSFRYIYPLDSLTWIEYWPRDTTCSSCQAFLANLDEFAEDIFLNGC

First: CC(=O)N[C@H]1CSCc2cccc(c2)CSC[C@@H](C(=O)N[C@@H](CC(=O)O)C(=O)N[C@H](C(=O)N[C@@H](Cc2ccc(O)cc2)C(=O)N[C@@H](Cc2c[nH]c3ccccc23)C(=O)N[C@@H](CCC(=O)O)C(=O)N[C@@H](Cc2ccc(O)cc2)C(=O)N2CCC[C@H]2C(N)=O)C(C)(C)C)NC(=O)[C@H](Cc2ccccc2)NC(=O)[C@H](CCCNC(=N)N)NC(=O)[C@H](CCC(=O)O)NC(=O)[C@H](C(C)C)NC1=O [Compound R3143, [mXyly1(1,6)]Ac-C-V-E-R-F-C-D-Tbg-Y-W-E-Y-P-NH2] (Ac-CVERFCD[Tle]YWEYP-NH2; linker 1-6 via mXylylene)
Second: CCC[C@H](NC(=O)[C@@H](NC(=O)[C@@H]1CCCN1C(=O)[C@H](Cc1ccc(O)cc1)NC(=O)[C@H](CCC(=O)O)NC(=O)[C@H](Cc1c[nH]c2ccccc12)NC(=O)[C@H](Cc1ccc(O)cc1)NC(=O)[C@@H](NC(=O)[C@H](CC(=O)O)NC(=O)[C@@H]1CSCc2cccc(c2)CSC[C@H](NC(C)=O)C(=O)N[C@@H](C)C(=O)N[C@@H](CCC(=O)O)C(=O)N[C@@H](CCCNC(=N)N)C(=O)N[C@@H](Cc2ccccc2)C(=O)N1)C(C)(C)C)c1ccccc1)C(N)=O [Compound R3148, [mXylyl(1,6)]Ac-C-A-E-R-F-C-D-Tbg-Y-W-E-Y-P-Phg-Nvl-NH2] (Ac-CAERFCD[Tle]YWEYP[Phg][Nva]-NH2; linker 1-6 via mXylylene)
The pIC50 of the first is 0.34 log units lower: 7.73 for the first, 8.07 for the second. The second is the more potent here.

`CC(=O)N[C@H]1CSCc2cccc(c2)CSC[C@@H](C(=O)N[C@@H](CC(=O)O)C(=O)N[C@H](C(=O)N[C@@H](Cc2ccc(O)cc2)C(=O)N[C@@H](Cc2c[nH]c3ccccc23)C(=O)N[C@@H](CCC(=O)O)C(=O)N[C@@H](Cc2ccccc2)C(N)=O)C(C)C)NC(=O)[C@H](Cc2ccccc2)NC(=O)[C@H](CCCNC(=N)N)NC(=O)[C@H](CCC(=O)O)NC(=O)[C@H](C(C)(C)C)NC1=O` [Compound R3146, [mXylyl(1,6)]Ac-C-Tbg-E-R-F-C-D-V-Y-W-E-F-NH2] (Ac-C[Tle]ERFCDVYWEF-NH2; linker 1-6 via mXylylene) and `C#CC[C@H](NC(=O)[C@H](Cc1ccccc1)NC(=O)[C@H](CCC(=O)O)NC(=O)[C@H](Cc1c[nH]c2ccccc12)NC(=O)[C@H](Cc1ccc(O)cc1)NC(=O)[C@@H](NC(=O)[C@H](CC(=O)O)NC(=O)[C@@H]1CSCc2cccc(c2)CSC[C@H](NC(C)=O)C(=O)N[C@@H](C(C)C)C(=O)N[C@@H](CCC(=O)O)C(=O)N[C@@H](CCCNC(=N)N)C(=O)N[C@@H](Cc2ccccc2)C(=O)N1)C(C)C)C(N)=O` [Compound R3147, [mXylyl(1,6)]Ac-C-V-E-R-F-C-D-V-Y-W-E-F-Propargyl-Gly-NH2] (Ac-CVERFCDVYWEF[Pra]-NH2; linker 1-6 via mXylylene) are within 0.2 log units of each other in pIC50: 6.97 for the first, 6.86 for the second.

First: CCC[C@H](NC(=O)[C@H](NC(=O)[C@@H]1CCCN1C(=O)[C@H](Cc1ccc(O)cc1)NC(=O)[C@H](CCC(=O)O)NC(=O)[C@H](Cc1c[nH]c2ccccc12)NC(=O)[C@H](Cc1ccc(O)cc1)NC(=O)[C@@H](NC(=O)[C@H](CC(=O)O)NC(=O)[C@@H]1CSCc2cccc(c2)CSC[C@H](NC(C)=O)C(=O)N[C@@H](C)C(=O)N[C@@H](CCC(=O)O)C(=O)N[C@@H](CCCNC(=N)N)C(=O)N[C@@H](Cc2ccccc2)C(=O)N1)C(C)(C)C)c1ccccc1)C(N)=O [Compound R3149, [mXylyl(1,6)]Ac-C-A-E-R-F-C-D-Tbg-Y-W-E-Y-P-(D-Phg)-Nvl-NH2] (Ac-CAERFCD[Tle]YWEYP[dPhg][Nva]-NH2; linker 1-6 via mXylylene)
Second: CC(=O)N[C@H]1CSCc2cccc(c2)CSC[C@@H](C(=O)N[C@@H](CC(=O)O)C(=O)N[C@H](C(=O)N[C@@H](Cc2ccc(O)cc2)C(=O)N[C@@H](Cc2c[nH]c3ncccc23)C(=O)N[C@@H](CCC(=O)O)C(=O)N[C@@H](Cc2ccc(O)cc2)C(=O)N2CCC[C@H]2C(=O)N[C@H](C(=O)N[C@@H](CCCCN)C(N)=O)c2ccccc2)C(C)(C)C)NC(=O)[C@H](Cc2ccccc2)NC(=O)[C@H](CCCNC(=N)N)NC(=O)[C@H](CCC(=O)O)NC(=O)[C@H](C)NC1=O [Compound R3161, [mXylyl(1,6)]Ac-C-A-E-R-F-C-D-Tbg-Y-azaTrp-E-Y-P-Phg-K-NH2]
The pIC50 of the first is 0.28 log units lower: 7.87 for the first, 8.15 for the second. The second is the more potent here.

Going from `CCC[C@H](NC(=O)[C@@H](NC(=O)[C@@H]1CCCN1C(=O)[C@H](Cc1ccc(O)cc1)NC(=O)[C@H](CCC(=O)O)NC(=O)[C@H](Cc1c[nH]c2ncccc12)NC(=O)[C@H](Cc1ccc(O)cc1)NC(=O)[C@@H](NC(=O)[C@H](CC(=O)O)NC(=O)[C@@H]1CSCc2cccc(c2)CSC[C@H](NC(C)=O)C(=O)N[C@@H](C(C)C)C(=O)N[C@@H](C)C(=O)N[C@@H](CCCNC(=N)N)C(=O)N[C@@H](Cc2ccccc2)C(=O)N1)C(C)(C)C)c1ccccc1)C(N)=O` [Compound R3150, [mXylyl(1,6)]Ac-C-V-A-R-F-C-D-Tbg-Y-azaTrp-E-Y-P-Phg-Nvl-NH2] (Ac-CVARFCD[Tle]Y[Trp(7-aza)]EYP[Phg][Nva]-NH2; linker 1-6 via mXylylene) to `CCC[C@H](NC(=O)[C@H](NC(=O)[C@@H]1CCCN1C(=O)[C@H](Cc1ccc(O)cc1)NC(=O)[C@H](CCC(=O)O)NC(=O)[C@H](Cc1c[nH]c2ncccc12)NC(=O)[C@H](Cc1ccc(O)cc1)NC(=O)[C@@H](NC(=O)[C@H](CC(=O)O)NC(=O)[C@@H]1CSCc2cccc(c2)CSC[C@H](NC(C)=O)C(=O)N[C@@H](C(C)C)C(=O)N[C@@H](C)C(=O)N[C@@H](CCCNC(=N)N)C(=O)N[C@@H](Cc2ccccc2)C(=O)N1)C(C)(C)C)c1ccccc1)C(N)=O` [Compound R3151, [mXylyl(1,6)]Ac-C-V-A-R-F-C-D-Tbg-Y-azaTrp-E-Y-P-(D-Phg)-Nvl-NH2] (Ac-CVARFCD[Tle]Y[Trp(7-aza)]EYP[dPhg][Nva]-NH2; linker 1-6 via mXylylene), the pIC50 falls from 7.43 to 6.78 (0.65 log units).

Compared with `CCC[C@H](NC(=O)[C@@H](NC(=O)[C@@H]1CCCN1C(=O)[C@H](Cc1ccc(O)cc1)NC(=O)[C@H](CCC(=O)O)NC(=O)[C@H](Cc1c[nH]c2ncccc12)NC(=O)[C@H](Cc1ccc(O)cc1)NC(=O)[C@@H](NC(=O)[C@H](CC(=O)O)NC(=O)[C@@H]1CSCc2cccc(c2)CSC[C@H](NC(C)=O)C(=O)N[C@@H](C(C)C)C(=O)N[C@@H](CCC(=O)O)C(=O)N[C@@H](C)C(=O)N[C@@H](Cc2ccccc2)C(=O)N1)C(C)(C)C)c1ccccc1)C(N)=O` [Compound R3153, [mXylyl(1,6)]Ac-C-V-E-A-F-C-D-Tba-Y-azaTrp-E-Y-P-Phg-Nvl-NH2] (Ac-CVEAFCD[Tle]Y[Trp(7-aza)]EYP[Phg][Nva]-NH2; linker 1-6 via mXylylene), `CCC[C@H](NC(=O)[C@H](NC(=O)[C@@H]1CCCN1C(=O)[C@H](Cc1ccc(O)cc1)NC(=O)[C@H](CCC(=O)O)NC(=O)[C@H](Cc1c[nH]c2ncccc12)NC(=O)[C@H](Cc1ccc(O)cc1)NC(=O)[C@@H](NC(=O)[C@H](CC(=O)O)NC(=O)[C@@H]1CSCc2cccc(c2)CSC[C@H](NC(C)=O)C(=O)N[C@@H](C(C)C)C(=O)N[C@@H](CCC(=O)O)C(=O)N[C@@H](C)C(=O)N[C@@H](Cc2ccccc2)C(=O)N1)C(C)(C)C)c1ccccc1)C(N)=O` [Compound R3154, [mXylyl(1,6)]Ac-C-V-E-A-F-C-D-Tbg-Y-azaTrp-E-Y-P-(D-Phg)-Nvl-NH2] (Ac-CVEAFCD[Tle]Y[Trp(7-aza)]EYP[dPhg][Nva]-NH2; linker 1-6 via mXylylene) is 0.53 log units lower in pIC50: 6.76 for the first, 6.23 for the second.

First: CCC[C@H](NC(=O)[C@@H](NC(=O)[C@@H]1CCCN1C(=O)[C@H](Cc1ccc(O)cc1)NC(=O)[C@H](CCC(=O)O)NC(=O)[C@H](Cc1c[nH]c2ncccc12)NC(=O)[C@H](Cc1ccc(O)cc1)NC(=O)[C@@H](NC(=O)[C@H](CC(=O)O)NC(=O)[C@@H]1CSCc2cccc(c2)CSC[C@H](NC(C)=O)C(=O)N[C@@H](C(C)C)C(=O)N[C@@H](CCC(=O)O)C(=O)N[C@@H](CCCNC(=N)N)C(=O)N[C@@H](C)C(=O)N1)C(C)(C)C)c1ccccc1)C(N)=O [Compound R3155, [mXylyl(1,6)]Ac-C-V-E-R-A-C-D-Tbg-Y-azaTrp-E-Y-P-Phg-Nvl-NH2] (Ac-CVERACD[Tle]Y[Trp(7-aza)]EYP[Phg][Nva]-NH2; linker 1-6 via mXylylene)
Second: CCC[C@H](NC(=O)[C@H](NC(=O)[C@@H]1CCCN1C(=O)[C@H](Cc1ccc(O)cc1)NC(=O)[C@H](CCC(=O)O)NC(=O)[C@H](Cc1c[nH]c2ncccc12)NC(=O)[C@H](Cc1ccc(O)cc1)NC(=O)[C@@H](NC(=O)[C@H](CC(=O)O)NC(=O)[C@@H]1CSCc2cccc(c2)CSC[C@H](NC(C)=O)C(=O)N[C@@H](C(C)C)C(=O)N[C@@H](CCC(=O)O)C(=O)N[C@@H](CCCNC(=N)N)C(=O)N[C@@H](C)C(=O)N1)C(C)(C)C)c1ccccc1)C(N)=O [Compound R3156, [mXylyl(1,6)]Ac-C-V-E-R-A-C-D-Tbg-Y-azaTrp-E-Y-P-(D-Phg)-Nvl-NH2] (Ac-CVERACD[Tle]Y[Trp(7-aza)]EYP[dPhg][Nva]-NH2; linker 1-6 via mXylylene)
The pIC50 of the first is higher: 5.82 for the first, < 5.00 for the second.

Going from `CCC[C@H](NC(=O)[C@@H](NC(=O)[C@@H]1CCCN1C(=O)[C@H](Cc1ccc(O)cc1)NC(=O)[C@H](CCC(=O)O)NC(=O)[C@H](Cc1c[nH]c2ncccc12)NC(=O)[C@H](Cc1ccc(O)cc1)NC(=O)[C@@H](NC(=O)[C@H](C)NC(=O)[C@@H]1CSCc2cccc(c2)CSC[C@H](NC(C)=O)C(=O)N[C@@H](C(C)C)C(=O)N[C@@H](CCC(=O)O)C(=O)N[C@@H](CCCNC(=N)N)C(=O)N[C@@H](Cc2ccccc2)C(=O)N1)C(C)(C)C)c1ccccc1)C(N)=O` [Compound R3157, [mXylyl(1,6)]Ac-C-V-E-R-F-C-A-Tbg-Y-azaTrp-E-Y-P-Phg-Nvl-NH2] (Ac-CVERFCA[Tle]Y[Trp(7-aza)]EYP[Phg][Nva]-NH2; linker 1-6 via mXylylene) to `CCC[C@H](NC(=O)[C@H](NC(=O)[C@@H]1CCCN1C(=O)[C@H](Cc1ccc(O)cc1)NC(=O)[C@H](CCC(=O)O)NC(=O)[C@H](Cc1c[nH]c2ncccc12)NC(=O)[C@H](Cc1ccc(O)cc1)NC(=O)[C@@H](NC(=O)[C@H](C)NC(=O)[C@@H]1CSCc2cccc(c2)CSC[C@H](NC(C)=O)C(=O)N[C@@H](C(C)C)C(=O)N[C@@H](CCC(=O)O)C(=O)N[C@@H](CCCNC(=N)N)C(=O)N[C@@H](Cc2ccccc2)C(=O)N1)C(C)(C)C)c1ccccc1)C(N)=O` [Compound R3158, [mXylyl(1,6)]Ac-C-V-E-R-F-C-A-Tbg-Y-azaTrp-E-Y-P-(D-Phg)-Nvl-NH2] (Ac-CVERFCA[Tle]Y[Trp(7-aza)]EYP[dPhg][Nva]-NH2; linker 1-6 via mXylylene), the pIC50 falls from 7.07 to 6.49 (0.58 log units). The first is the more potent here.
